What was measured:
[1] = target: phosphatidylserine synthase 1 (PSS1) (Homo sapiens, UniProt P48651, P269S); format: biochemical
[2] = target: phosphatidylserine synthase 1 (PSS1) (Homo sapiens, UniProt P48651); assay: cryo-EM structure at […] Å; format: biochemical

Work on CC(F)(F)CN1C(=O)c2[nH]nc(-c3cccc4[nH]c(=O)oc34)c2[C@@H]1c1ccc(Oc2cc(C(F)(F)F)cc(C(F)(F)F)c2)cc1 [DS, DS55980254] yielded an IC50 [1] of 1.27 µM and an IC50 [2] of 1.65 µM.

Source: PMC11455612 (Cell, 2024)
